The results in this text go back to patent US20130280214A1, “POLYCYCLIC HETEROCYCLE DERIVATIVES AND METHODS OF USE THEREOF FOR THE TREATMENT OF VIRAL DISEASES” (Merck Sharp & Dohme Corp., priority 2010, published 2013).

Like-named read-outs stand apart in the source and are kept apart here.

Data set [1] deals with genotype 1a replicon cells. Briefly: 3-day cell-based HCV replicon assay (Taqman). Conditions: Hepatitis C virus. The protocol: The replicon RNA level was measured using real time PCR (Taqman assay). […] EC50 was defined as the concentration of inhibitor necessary to achieve ΔCT=1 over the projected baseline; EC90 the concentration necessary to achieve ΔCT=3.2 over the baseline. Alternatively, to quantitate the absolute amount of replicon RNA, a standard curve was established by including serially diluted T7 transcripts of replicon RNA in the Taqman assay. All Taqman reagents were from PE Applied Biosystems. Such an assay procedure was described in detail in e.g. Malcolm et al., Antimicrobial Agents and Chemotherapy 50: 1013-1020 (2006).
On the technique in general: Replicon systems follow genome replication, usually without infectious particles.

The subject of data set [2] is replicon cells. Briefly: Cytotoxicity assay (CellTiter Blue). Conditions: TI=CC50/EC50. It is filed as cell-based. The protocol:
(§1) The cytotoxicity of compounds of Table 1 and of the additional therapeutic agents used in the compositions and methods of the present invention can be measure using the assay described below.
(§2) Compounds are ordered 1 or 2 days before the experiment. Compounds and cells are prepared using the method described in Example 2 for the RHEPLUC assay (See FIG. 1) or combination study (See FIG. 2)
(§3) After 3 day incubation of cells with individual test compounds, cytotoxicity is determined using CellTiter Blue as described in the assay protocol below.
(§4) The CellTiter Blue solution (4 mL) is diluted with 1× Dulbecco's PBS (16 mL). 5 μL of the resulting solution is added to each well of the 384 well assay plate containing cells treated with compound for 72 hours. The plate is shaken for 10 seconds, then incubated in 5% CO2 at 37° C. for 1 hour. The plate is then shaken again for 10 seconds and the fluorescence is measured at excitation wavelength 540 nm and emission wavelength 590 nm.
(§5) NOTE: cells (all genotypes and mutants) are cultured in DMEM/10% FBS in the presence of G418. During the assay G418 is absent.
(§6) For cytotoxicity assays data is analyzed to obtain the CC50 of each compound tested alone and in combination. The analysis uses the average of 100% cytotoxicity (media only without cells) and 0% cytotoxicity (100% viability, 0.5% DMSO in the presence of cells) to calculate the percentage of compound cytotoxicity and CC50 using the following 4 parameter equation:
(§7) Wherein average low=100% cytotoxicity (media only) and average high=100% viability (0.5% DMSO).
(§8) CC50 values were calculated for a selected Polycyclic Heterocycle Derivative of the present invention (compound 2) and for […] first additional therapeutic agents of the present invention. The therapeutic index for the selected compounds was also calculated, wherein TI=CC50/EC50.

The nature of data set [3]: Cytotoxicity assay (CellTiter Blue). It is filed as cell-based. Conditions: CellTiter Blue, cells treated 72 hours. The procedure: as §1, §2, §3, §4, §5, §6, §7, §8
In general terms: Alamar Blue is a resazurin reagent that responds to reducing activity.

The test system of data set [4] is HCV replicon. Briefly: RHEPLUC assay (replicon luciferase, EC50 of single agents). Format: cell-based, Hepatitis C virus (HCV). Particulars: Hepatitis C virus. The protocol: The previously determined EC50 for each test compound is then placed in the middle of the combination study titration curve.
Test compounds are ordered at 4000× final concentration, one or two days before the assay, and are diluted 1/10 in DMSO (400× concentration). The diluted first test compound (400×) is distributed in a first low dead volume plate as described in FIG. 1. The diluted second test compound (400×) is distributed in a second low dead volume plate as described in FIG. 2.
To obtain maximum luciferase signal (0% inhibition control), 100% DMSO is added to the 200× test compound mix plate. For minimum luciferase signal (100% inhibition control), a known NS5A inhibitor (Compound A, EC50 of 0.01 nM, made as described in International Patent Application No. PCT/US2010/028653) is used at 1 nM final concentration. Accordingly, 6 μL of 200 nM Compound A is added to the 200× test compound mix plate (see FIG. 4).
On the day of the experiment, Complete growth media (10 μL) is added to all wells in a 384 well assay plate, then 150 nL per well from the test compound mix plate is added to the assay plate.
The cell monolayer is rinsed with pre-warmed PBS (˜37° C.), then pre-warmed trypsin (0.25%, ˜37° C.) is added and the cells are incubated for 2 to 5 minutes in 5% CO2 at 37° C. Complete growth media is then added, cells are mixed and counted, and then diluted in complete growth media to a final concentration of 1.0×10^5 cells/mL. […]
Bright-Glo Luciferase reagent is prepared as specified by the kit instructions and kept in the dark until the reagent has reached room temperature. […] The plate is allowed to incubate for 5 minutes at room temperature, then the plate is placed on a reader within 30 minutes after incubation is complete, and the luminescence is monitored at 0.5 seconds per well.
Using the RHEPLUC assay, EC50 values were calculated prior to initiation of combination studies for a selected Polycyclic Heterocycle Derivative of the present invention (compound 2) and for two first additional therapeutic agents of the present invention (compounds F5 and F7).

Data set [5] concerns genotype 1a replicon cells. Briefly: 15-day cell-based HCV replicon curing assay. Details: species or system Hepatitis C virus (HCV). Particulars: genotype 1a replicon cells treated 15 days.
[6] abbreviates: RHEPLUC assay, single agent, 72 hours incubation.

Consider `COC(=O)N[C@H](C(=O)N1CCC[C@H]1c1ncc(-c2ccc(-c3cc4cc(-c5cnc([C@@H]6CCCN6C(=O)[C@@H](NC(=O)OC)C(C)C)[nH]5)ccc4o3)cc2)[nH]1)C(C)C` [Compound 2], for which, in data set [1] (printed as 1×EC90, read-out: EC90), the EC90 came to 0.006 nM. In addition, in data set [2], the “Therapeutic Index” value is given as 2425000. Also, in data set [3], the CC50 at 72 h is 9.7 µM. The EC50 in data set [4] (setting [6]) was found to be 0.004 nM.
As to `COC(=O)NC(C(=O)N1CCC[C@H]1c1ncc(-c2ccc3oc(-c4ccc(-c5cnc([C@@H]6CCCN6C(=O)[C@H](NC(=O)OC)c6ccccc6)[nH]5)cc4)cc3c2)[nH]1)c1ccccc1` (stereo partly shown) [Compound A, reference compound], the EC50 in data set [4] (known NS5A inhibitor used as 100% inhibition control, assay of the value not stated) is 0.01 nM.
Turning to `C=C[C@@H]1C[C@]1(NC(=O)[C@@H]1C[C@@H]2CN1C(=O)[C@H](C(C)(C)C)NC(=O)O[C@@H]1C[C@H]1CCCCCc1nc3ccc(OC)cc3nc1O2)C(=O)NS(=O)(=O)C1CC1` [Compound F5], the “NS3 (amino acid residues 1-180) population sequence analysis, resistance mutations” value in data set [5] is “low levels of D168G and P88A”. In data set [1] (printed value is three times the EC90, read-out: 3×EC90), the EC90 was found to be 7.5 nM. Further, the “Therapeutic Index” value in data set [2] is 108865. For the same compound, in data set [3], the CC50 at 72 h was 35 µM. In addition, in data set [4] (setting [6]), the EC50 is 0.322 nM.

A word on the EC90: it is the concentration at which the effect reaches the 90% level. Broadly, the CC50 is the concentration that lowers cell viability or growth by half. The EC50 is the midpoint of the concentration-response curve.
